Literature values in patent publication US20250261646A1, “SOLID COMPOSITION AS A SOLUBLE PRECURSOR OF AN ECO-FRIENDLY AND EFFECTIVE METAL-BASED BIOCIDE, PROCESS AND USE THEREOF” (BIOREM ENGINEERING SA, priority 2022, published 2025).

Conditions: for comparison

## [O]=[Zn] [ZnO, zinc(II) oxide]
  solubility: 4 µg/mL
